Test results reported in US6287840A (Axys Pharmaceuticals, Inc., priority 1999, dated 2001).
pKi: −log10 of the molar value. Where a name gives a salt, the structure may show the parent alone. Read-outs that look alike come from different tables or passages of the source.

What was measured:
[1] = biological target: T1, Cathepsin B from human placenta (Homo sapiens, UniProt P07858); experiment: Inhibition of cathepsin B, Z-Arg-Arg-AMC fluorescence progress curves; assay type: biochemical; conditions: for k/KI (kirr/KI): values without asterisk, 25° C., pH 6.2
T1 construct: Cathepsin B from human placenta, obtained from Sigma; purchased Sigma; host or cells: human placenta (tissue)
Outline: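 Human placental enzyme (~10 nM) in 50 mM phosphate pH 6.2 with 2.5 mM DTT and 2.5 mM EDTA, 50 μM Z-Arg-Arg-AMC, inhibitors 30-0.001 μM, 25° C. AMC fluorescence (ex 380/em 460 nm) progress curves fitted for kobs; kobs/[I] reported, with kirr, KI and kirr/KI substrate-corrected for selected compounds.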

[2] = biological target: T2, Cathepsin L from rat liver (Rattus norvegicus, UniProt P07154); experiment: Inhibition of cathepsin L, Z-Phe-Arg-AMC fluorescence progress curves; assay type: biochemical; conditions: for k/KI (kirr/KI): values without asterisk
T2 construct: Cathepsin L from rat liver; from tissue; host or cells: rat liver
Outline: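 Progress curves of AMC release (380/460 nm) over at least 3 inactivation half-times were fitted to kobs, reported as kobs/[I] or, via 1/[I] vs 1/kobs, kirr, KI (substrate-corrected) and kirr/KI.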

[3] = biological target: T3, Cloned cathepsin S (Homo sapiens, UniProt P25774); experiment: Inhibition of cathepsin S, Z-Val-Val-Arg-AMC fluorescence progress curves; assay type: biochemical; conditions: for pKi: corrected for substrate; for k/KI (kirr/KI): values without asterisk
T3 construct: made in house
Outline: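 Fluorescence (380 nm excitation, 460 nm emission) was followed after adding sub-nM enzyme to pH 6.5 phosphate buffer with DTT, EDTA, Triton, 10 μM Z-VVR-AMC and 30-0.001 μM inhibitor at 25 °C. Fitted kobs values gave apparent kobs/[I]; for some, double-reciprocal plots gave kirr, KI and kirr/KI, KI corrected by 1+[S]/Km.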

[4] = biological target: cruzain, from T. cruzi (Trypanosoma cruzi, UniProt P25779); experiment: Inhibition of cruzain, as for cathepsin L; assay type: biochemical
Outline: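 Run as for cathepsin L with 1 nM cruzain in 50 mM phosphate pH […], 2.5 mM DTT, 2.5 mM EDTA, 5 μM Z-Phe-Arg-AMC, at 25 °C, inhibitors 30-0.001 μM; fluorescence (ex 380/em 460 nm) followed continuously. kobs fitted from progress curves and kobs/[I] reported; selected compounds gave kirr, KI, kirr/KI, with KI corrected by (1+[S]/Km).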

[5] = test system: calpain; experiment: Inhibition (inactivation) of calpain, Suc-Leu-Tyr-AMC; assay type: biochemical; conditions: pH 7.5, 5 mM CaCl2, 25° C.; for k/KI (kirr/KI): values without asterisk; for kobs /[I]*: values marked * (or %)
Procedure: The inhibitors were tested against calpain at 1 or 2% as for the other enzymes. The reaction conditions were 50 mM Tris, pH 7.5, 5 mM CaCl2, 2.5 mM DTT, assayed at 25° C. The substrate was 100 μM Suc-Leu-Tyr-AMC.

[6] = test system: Leishmania donovani amastigote infected mouse peritoneal macrophages; experiment: In vitro antiprotozoal activity, Leishmania donovani; assay type: cell-based
Procedure: (§1) In this table, the in vitro antiprotozoal activities of the indicated compounds were measured as percentage inhibition of Leishmania donovani amastigote infecteda mouse peritoneal macrophages, Trypanosoma cruzi amastigote infected macrophages, and Trypanosoma brucei extracellular bloodstream forms.

[7] = test system: Trypanosoma cruzi amastigote infected macrophages; experiment: In vitro antiprotozoal activity, Trypanosoma cruzi; assay type: cell-based
Procedure: as §1

[8] = test system: Trypanosoma brucei extracellular bloodstream forms; experiment: In vitro antiprotozoal activity, Trypanosoma brucei; assay type: cell-based
Procedure: as §1

[9] = test system: human malarial parasite Plasmodium falciparum; experiment: In vitro protease activity of malarial parasite, substrate Z-Phe-Arg-AMC; assay type: biochemical; conditions: read-out: P. falciparum IC50 (human)
Excerpt: (§2) The following table summarizes the comparative IC50 values for selected cysteine protease inhibitors against the human malarial parasite Plasmodium falciparum and the mouse malarial parasite Plasmodium vinckei. The substrate used to measure in vitro protease activity was Z-Phe-Arg-AMC.

[10] = test system: mouse malarial parasite Plasmodium vinckei; experiment: as above; assay type: biochemical; conditions: read-out: P. vinckei IC50 (murine)
Excerpt: as §2

Chain of cruzain, from T. cruzi (P25779 123-337 limits assumed): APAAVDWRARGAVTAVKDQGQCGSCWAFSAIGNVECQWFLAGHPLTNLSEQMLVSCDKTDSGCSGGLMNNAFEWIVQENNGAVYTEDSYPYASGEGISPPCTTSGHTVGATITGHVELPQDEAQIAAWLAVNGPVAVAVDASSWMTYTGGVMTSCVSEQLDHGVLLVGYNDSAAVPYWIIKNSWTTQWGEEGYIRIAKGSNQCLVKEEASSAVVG
T2 sequence (P07154 114-288 limits assumed): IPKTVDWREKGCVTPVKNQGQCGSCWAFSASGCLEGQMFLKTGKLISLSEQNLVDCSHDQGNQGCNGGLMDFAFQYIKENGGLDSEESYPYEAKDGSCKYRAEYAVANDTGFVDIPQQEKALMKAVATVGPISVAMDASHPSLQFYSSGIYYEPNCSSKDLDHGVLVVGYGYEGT
T2 sequence (P07154 291-334 limits assumed): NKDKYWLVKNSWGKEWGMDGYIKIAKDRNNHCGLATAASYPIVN
T3 sequence (P25774 115-331): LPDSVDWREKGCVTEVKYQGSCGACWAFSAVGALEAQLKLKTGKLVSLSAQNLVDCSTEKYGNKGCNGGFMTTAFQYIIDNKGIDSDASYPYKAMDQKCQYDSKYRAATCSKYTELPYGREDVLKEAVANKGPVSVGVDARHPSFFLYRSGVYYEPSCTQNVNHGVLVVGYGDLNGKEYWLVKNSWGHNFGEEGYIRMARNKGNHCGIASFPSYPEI

Compound: CC(Cc1ccccc1)(NC(=O)N1CCOCC1)C(=O)N[C@H](/C=C/S(=O)(=O)c1ccccc1)CCc1ccccc1 (mixture of isomers) [Mu-DL-Fam-HphVSPh]
- KI ([1]; corrected for substrate): binds
- k/KI (kirr/KI) [1]: 0 M⁻¹ s⁻¹
- KI ([2]; corrected for substrate): binds
- k/KI (kirr/KI) ([2]; 25° C., pH 6.2): 0 M⁻¹ s⁻¹
- kirr [3]: 0.54 s⁻¹
- pKi [3]: 4.85
- k/KI (kirr/KI) ([3]; 25° C., pH 6.5): 39,000 M^-1 sec^-1
- kobs /[I]* (approximate second-order inactivation constant) ([4]; values marked *): 18,100 M^-1 sec^-1
- k/KI (kirr/KI) [5]: 0 M⁻¹ s⁻¹

Compound: CC(C)(C)OC(=O)C[C@@H](/C=C/S(C)(=O)=O)NC(=O)OC(C)(C)C [Boc-Asp(O-tBu)VSMe, (S)-(E)-3-tert-butoxycarbonylamino-4-tert-butoxycarbonyl-1-methylsulfonyl-1-butene]
- k/KI (kirr/KI) [1]: 0 M⁻¹ s⁻¹
- k/KI (kirr/KI) ([2]; 25° C., pH 6.2): 0 M⁻¹ s⁻¹
- kinact/KI ([4]; pH 6.2, values marked *, read-out: kobs /[I]* (approximate second-order inactivation constant)): 800 M⁻¹ s⁻¹
- k/KI (kirr/KI) [5]: 0 M⁻¹ s⁻¹
- inhibition at 3 µM ([6]; Leishmania donovani, Peritoneal macrophage, 3 uM, read-out: percentage inhibition, L. donovani): 0%
- inhibition at 10 µM ([6]; Leishmania donovani, Peritoneal macrophage, 10 uM, read-out: percentage inhibition, L. donovani): 0%
- inhibition at 30 µM ([6]; Leishmania donovani, Peritoneal macrophage, 30 uM, read-out: percentage inhibition, L. donovani): 13.4%
- inhibition at 90 µM ([6]; Leishmania donovani, Peritoneal macrophage, 90 uM, read-out: percentage inhibition, L. donovani): 12.9%
- inhibition at 3 µM ([7]; Trypanosoma cruzi, Macrophage, 3 uM, read-out: percentage inhibition, T. cruzi): 0%
- inhibition at 10 µM ([7]; Trypanosoma cruzi, Macrophage, 10 uM, read-out: percentage inhibition, T. cruzi): 0%
- inhibition at 30 µM ([7]; Trypanosoma cruzi, Macrophage, 30 uM, read-out: percentage inhibition, T. cruzi): 0%
- inhibition at 90 µM ([7]; Trypanosoma cruzi, Macrophage, 90 uM, read-out: percentage inhibition, T. cruzi): 9.9%
- inhibition at 3 µM ([8]; Trypanosoma brucei, 3 uM, read-out: percentage inhibition, T. brucei): 0%
- inhibition at 10 µM ([8]; Trypanosoma brucei, 10 uM, read-out: percentage inhibition, T. brucei): 0%
- inhibition at 30 µM ([8]; Trypanosoma brucei, 30 uM, read-out: percentage inhibition, T. brucei): 0%
- inhibition at 90 µM ([8]; Trypanosoma brucei, 90 uM, read-out: percentage inhibition, T. brucei): 0%

Compound: CC(N)C(=O)NC(C=CS(C)(=O)=O)Cc1ccccc1 (stereo not drawn) [HCl.Ala-PheVSMe]
- IC50 ([9]; cells printed in μM): > 100 µM

Compound: COC(=O)C1CCCN1C(=O)C(CC(C)C)NC(=O)/C=C/[C@H](CCc1ccccc1)NC(=O)[C@H](Cc1ccccc1)NC(=O)N1CCOCC1 (stereo partly drawn) [Mu-Phe-HphVAMLeu-ProOMe, (S)-(E)-(N-leucylprolinemethylester)-4-(4-morpholinecarbonylphenyl-alanyl)amino-6-phenyl-2-hexenamide]
- IC50 ([9]; cells printed in nM): 0.08 µM
- IC50 ([10]; cells printed in nM): 600 nM

Compound: O=C(NCCCC[C@@H](/C=C/S(=O)(=O)c1ccccc1)NC(=O)[C@H](Cc1ccccc1)NC(=O)N1CCOCC1)OCc1ccccc1 [Mu-Phe-Lys(Z)VSPh, (S)-(E)-7-(benzyloxycarbonyl)amino-3-(4-morpholinecarbonylphenylalanyl)-amino-1-phenylsulfonyl-1-heptene]
- kirr [1]: 0.18 s⁻¹
- pKi ([1]; corrected for substrate): 5.33
- k/KI (kirr/KI) [1]: 39,200 M^-1 sec^-1
- kirr [2]: 0.45 s⁻¹
- pKi ([2]; corrected for substrate): 5.42
- k/KI (kirr/KI) ([2]; 25° C., pH 6.2): 120,000 M^-1 sec^-1
- kirr [3]: 0.14 s⁻¹
- pKi [3]: 7.27
- k/KI (kirr/KI) ([3]; 25° C., pH 6.5): 2,600,000 M^-1 sec^-1
- k/KI (kirr/KI) ([4]; values without asterisk): 44,500 M^-1 sec^-1
- percentage inhibition, L. donovani ([6]; 3 uM): 0%
- percentage inhibition, L. donovani ([6]; 10 uM): 0%
- percentage inhibition, L. donovani ([6]; 30 uM): 0%
- percentage inhibition, L. donovani ([6]; 90 uM): 0%
- percentage inhibition, T. cruzi ([7]; 3 uM): 0%
- percentage inhibition, T. cruzi ([7]; 10 uM): 0%
- percentage inhibition, T. cruzi ([7]; 30 uM): 0%
- percentage inhibition, T. cruzi ([7]; 90 uM): 0%
- ED50, T. brucei [8]: 3.64 µM
- percentage inhibition, T. brucei ([8]; 1 uM): 19.8%
- percentage inhibition, T. brucei ([8]; 3 uM): 29.9%
- percentage inhibition, T. brucei ([8]; 10 uM): 81.3%
- percentage inhibition, T. brucei ([8]; 30 uM): 100%
- percentage inhibition, T. brucei ([8]; 90 uM): 100%
- IC50 ([9]; cells printed in nM): 0.1 µM
- IC50 ([10]; cells printed in nM): 80 nM

Compound: (S)-(E)-3-(4-morpholinecarbonylphenylalanyl)amino-1-methylsulfonyl-1-butene [Mu-Phe-AlaVSMe]
- kirr [1]: 0.19 s⁻¹
- pKi ([1]; corrected for substrate): ~3.00
- k/KI (kirr/KI) [1]: 300 M⁻¹ s⁻¹
- kobs /[I]* (approximate second-order inactivation constant) ([3]; values marked *, 25° C., pH 6.5): 26,000 M^-1 sec^-1
- kobs /[I]* (approximate second-order inactivation constant) ([4]; values marked *): 700 M⁻¹ s⁻¹
- kobs /[I]* [5]: < 50 M⁻¹ s⁻¹
- percentage inhibition, L. donovani ([6]; 3 uM): 0%
- percentage inhibition, L. donovani ([6]; 10 uM): 0%
- percentage inhibition, L. donovani ([6]; 30 uM): 0%
- percentage inhibition, L. donovani ([6]; 90 uM): 6.7%
- percentage inhibition, T. cruzi ([7]; 3 uM): 0%
- percentage inhibition, T. cruzi ([7]; 10 uM): 0%
- percentage inhibition, T. cruzi ([7]; 30 uM): 11.2%
- percentage inhibition, T. cruzi ([7]; 90 uM): 12.2%
- percentage inhibition, T. brucei ([8]; 3 uM): 0%
- percentage inhibition, T. brucei ([8]; 10 uM): 0%
- percentage inhibition, T. brucei ([8]; 30 uM): 0%
- percentage inhibition, T. brucei ([8]; 90 uM): 0%
- IC50 ([9]; cells printed in μM): 20 µM

Compound: (S)-(E)-3-(4-morpholinecarbonylphenylalanyl)amino-1-methylsulfonyl-4-phenyl-1-butene [Mu-Phe-PheVSMe]
- kobs /[I]* (approximate second-order inactivation constant) ([2]; values marked *, 25° C., pH 6.2): 100 M⁻¹ s⁻¹
- kobs /[I]* [5]: 260 M⁻¹ s⁻¹
- IC50 ([9]; cells printed in μM): 2 µM

Compound: (S)-(E)-4-(4-morpholinecarbonylphenylalanyl)amino-6- phenyl-2-hexenoic acid [Mu-Phe-HphVA]
- kirr [1]: 0.038 s⁻¹
- pKi ([1]; corrected for substrate): 4.07
- k/KI (kirr/KI) [1]: 450 M⁻¹ s⁻¹
- IC50 ([9]; cells printed in μM): 1 µM
- IC50 ([10]; cells printed in μM): 2000 nM

Compound: ethyl (S)-(E)-4-(4-morpholinecarbonylphenylalanyl)-amino-6-phenyl-2-hexenoate [Mu-Phe-HphVEOEt]
- kirr [1]: 0.19 s⁻¹
- pKi ([1]; corrected for substrate): 4.72
- k/KI (kirr/KI) [1]: 10,100 M^-1 sec^-1
- kirr [2]: 0.10 s⁻¹
- pKi ([2]; corrected for substrate): 5.66
- k/KI (kirr/KI) ([2]; 25° C., pH 6.2): 47,500 M^-1 sec^-1
- kobs /[I]* (approximate second-order inactivation constant) ([4]; values marked *): 80,400 M^-1 sec^-1
- IC50 ([9]; cells printed in nM): 0.3 µM
- IC50 ([10]; cells printed in nM): 300 nM
